By pIC50 is commonly meant the negative decadic logarithm of the IC50, by convention in mol/L.

pIC50: −log10 of the molar value.

The target in test [1] is T1, 5-Lipoxygenase from HWBL-1 20,000 xg Supernatant (Rattus norvegicus, UniProt P12527).
T1 construct: 20,000 xg supernatant from 1.5 million homogenized HWBL-1 cells; endogenous in cells
T1 sequence (P12527 1-673): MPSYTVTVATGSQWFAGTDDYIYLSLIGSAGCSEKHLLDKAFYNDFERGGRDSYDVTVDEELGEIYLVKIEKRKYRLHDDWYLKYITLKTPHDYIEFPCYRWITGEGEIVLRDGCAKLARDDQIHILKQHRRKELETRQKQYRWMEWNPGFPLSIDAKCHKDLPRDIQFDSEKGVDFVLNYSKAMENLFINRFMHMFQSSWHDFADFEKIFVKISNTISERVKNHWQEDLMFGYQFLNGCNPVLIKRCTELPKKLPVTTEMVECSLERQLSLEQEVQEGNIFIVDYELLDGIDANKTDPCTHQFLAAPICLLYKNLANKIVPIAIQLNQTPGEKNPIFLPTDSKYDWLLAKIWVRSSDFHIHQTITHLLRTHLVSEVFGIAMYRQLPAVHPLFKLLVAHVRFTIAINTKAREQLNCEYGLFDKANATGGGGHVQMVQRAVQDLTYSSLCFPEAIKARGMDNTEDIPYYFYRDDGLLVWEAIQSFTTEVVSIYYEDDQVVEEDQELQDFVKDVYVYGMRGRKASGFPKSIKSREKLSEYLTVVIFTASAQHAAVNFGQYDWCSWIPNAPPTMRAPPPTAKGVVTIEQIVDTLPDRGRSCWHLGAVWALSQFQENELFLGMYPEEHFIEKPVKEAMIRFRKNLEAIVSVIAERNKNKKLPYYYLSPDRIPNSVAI
As to the kind of experiment: 5-lipoxygenase inhibition, 20,000 xg supernatant of homogenized HWBL-1 cells, radiolabeled arachidonic acid. The format is biochemical. The note with it: read-out: IC50 (in vitro inhibitory potency against 5-lipoxygenase). Here is the method:
Assays to determine 5-lipoxygenase inhibitory activity of representative compounds of the present invention were performed in […] incubations containing the 20,000 xg supernatant from 1.5 million homogenized HWBL-1 cells and various concentrations of the test compound. Reactions were initiated by addition of radiolabeled arachidonic acid and terminated by acidification and ether extraction. Reaction products were separated from nonconverted substrate by thin layer chromatography and measured by liquid scintillation spectroscopy. All incubations are performed in triplicate. Inhibition of 5-lipoxygenase activity was calculated as the ratio of the amount of product formed in the presence and absence of inhibitor. IC50 values (concentration of compound producing 50% enzyme inhibition) were calculated by linear regression analysis of percentage inhibition versus log inhibitor concentration plots. (Dyer, R. D.; Haviv, F.; Hanel, A. M.; Bornemier, D. A.; Carter, G. W. Fed. Proc., Fed. Am. Soc. Exp. Biol. 1984, 43, 1462A).
In Vitro Inhibitory Potencies of Compounds of this Invention
Against 5-Lipoxygenase from HWBL-1 20,000 xg Supernatant

Another test concerns Leukotrienes. In words: inhibition of leukotriene biosynthesis in vivo, rat peritoneal anaphylaxis model, oral. The conditions noted are these: oral gavage, 1 h before antigen challenge; for inhibition in vivo at 100 µmol/kg: 100 μmol/kg, read-out: % Inhibition of Leukotrienes, Oral Dose at 100 μmol/kg; for inhibition in vivo at 30 µmol/kg: read-out: % Inhibition of Leukotrienes, Oral Dose at 30 μmol/kg. Here is the method: Inhibition of the biosynthesis of leuktrienes in vivo after oral administration of compound was determined using a rat peritoneal anaphylaxis model in a similar manner as that described by Young and coworkers (Young, P. R.; Dyer, R. D.; Carter, G. W. Fed. Proc., Fed. Am. Soc. Exp. Biol. 1985, 44, 1185). In this model rats were injected intraperitoneally (ip) with rabbit antibody to bovine serum albumin (BSA) and three hours later injected ip with BSA to induce an antgen-antibody response. Rats were sacrificed 15 minutes after this challenge and the peritoneal fluids were collected and analyzed for leukotriene levels. Test compounds were administered by gavage one hour prior to the antigen challenge. Percent inhibition values were determined by comparing the treatment group to the mean of the control group.

With `NC(=O)N(O)CCNC(=O)c1cccc(Oc2ccccc2)c1` [Example 2], the pIC50 in test [1] was 6.64. In addition, in the test with Leukotrienes, the inhibition in vivo at 100 µmol/kg came out at 84%.

Consider `CCCCOc1cccc(C(=O)NCCN(O)C(N)=O)c1` [Example 19], for which the pIC50 in test [1] was 6.59. In the test with Leukotrienes, the inhibition in vivo at 100 µmol/kg worked out at 63%.

`NC(=O)N(O)CCCNC(=O)c1cccc(Oc2ccccc2)c1` [Example 21]: the pIC50 in test [1] is 7.15. Moreover, the inhibition in vivo at 100 µmol/kg in the test with Leukotrienes came out at 95%.

Consider `CNC(=O)N(O)CCCNC(=O)c1cccc(Oc2ccccc2)c1` [Example 23, N-Hydroxy-N'-methyl-N-[3-((3-phenoxybenzoyl)amino)propyl]urea], for which, in the test with Leukotrienes (30 μmol/kg), the inhibition in vivo at 30 µmol/kg worked out at 57%.

Regarding `NC(=O)N(O)CCNC(=O)c1cccc(Oc2ccc(Cl)cc2)c1` [Example 26, N-Hydroxy-N-[2-((3-(4-chlorophenoxy)benzoyl)amino)ethyl]urea], the pIC50 in test [1] is 6.80. Moreover, in the test on Leukotrienes, the inhibition in vivo at 100 µmol/kg is 99%.

Regarding `C[C@H](CN(O)C(N)=O)NC(=O)c1cccc(Oc2ccccc2)c1` [Example 32, (R)-N-Hydroxy-N-[2-((3-phenoxybenzoyl)amino)propyl]urea], the pIC50 in test [1] is 6.68. Further, the inhibition in vivo at 100 µmol/kg in the test on Leukotrienes stood at 90%.

For the molecule `NC(=O)N(O)CCNC(=O)c1cccc(OCc2ccccc2)c1` [Example 35, N-Hydroxy-N-[2-((3-phenylmethyloxybenzoyl)amino)ethyl]urea], the pIC50 in test [1] was 6.66. Further, in the test with Leukotrienes, the inhibition in vivo at 100 µmol/kg was determined as 15%.

Consider `NC(=O)N(O)CCNC(=O)c1ccc(Oc2ccccc2)o1` [Example 36, N-Hydroxy-N-[2-((5-phenoxyfuran-2-oyl)amino)ethyl]urea], for which the pIC50 in test [1] is 6.89. Moreover, the inhibition in vivo at 30 µmol/kg with Leukotrienes (30 μmol/kg) was 78%.

`CN(CCN(O)C(N)=O)Cc1cccc(Oc2ccc(Cl)cc2)c1` [Example 37, N-Hydroxy-N-[2-(N-methyl-((3-(4-chlorophenoxy)phenyl)methyl)amino)ethyl]urea]: the pIC50 in test [1] was 7.00. For the same molecule, in the test on Leukotrienes, the inhibition in vivo at 100 µmol/kg was determined as 80%.

With `COc1ccc(Oc2cccc(CN(C)CCN(O)C(N)=O)c2)cc1` [Example 38], the pIC50 in test [1] is 6.70. For the same molecule, in the test with Leukotrienes, the inhibition in vivo at 100 µmol/kg came to 86%.

In the case of `CN(CCN(O)C(N)=O)Cc1cccc(Oc2cc(Cl)cc(Cl)c2)c1` [Example 40, N-Hydroxy-N-[2-(N-methyl-((3-(3,5-dichlorophenoxy)phenyl)methyl)amino)ethyl]urea], the negative-log IC50 (pIC50) in test [1] is 6.82. Further, the inhibition in vivo at 100 µmol/kg with Leukotrienes is 76%.

Take `NC(=O)N(O)CCNC(=O)c1ccccc1Oc1ccccc1` [Example 51, N-Hydroxy-N-[2-((2-phenoxybenzoyl)amino)ethyl]urea]: in test [1], the pIC50 was 6.62. Also, in the test on Leukotrienes (30 μmol/kg), the inhibition in vivo at 30 µmol/kg worked out at 47%.

In the case of `NC(=O)N(O)CCNC(=O)c1ccc(Oc2ccccc2)cc1` [Example 52, N-Hydroxy-N-[2-((4-phenoxybenzoyl)amino)ethyl]urea], the pIC50 in test [1] was 6.80. The inhibition in vivo at 30 µmol/kg in the test on Leukotrienes (30 μmol/kg) was determined as 19%.

Take `NC(=O)N(O)CCNC(=O)c1cccc(Oc2ccc(Br)cc2)c1` [Example 53, N-Hydroxy-N-[2-(3-((4-bromophenoxy)benzoyl)amino)ethyl]urea]: in test [1], the pIC50 was 6.36. Also, the inhibition in vivo at 30 µmol/kg with Leukotrienes (30 μmol/kg) stood at 33%.

Regarding `NC(=O)N(O)CCNC(=O)c1cccc(Oc2ccc(F)cc2)c1` [Example 54, N-Hydroxy-N-[2-(3-((4-fluorophenoxy)benzoyl)amino)ethyl]urea], in test [1], the pIC50 is 6.82. In addition, the inhibition in vivo at 30 µmol/kg with Leukotrienes (30 μmol/kg) came out at 11%.

Regarding `NC(=O)N(O)CCNC(=O)c1cccc(Oc2ccccn2)c1` [Example 55, N-Hydroxy-N-[2-((3-(pyrid-2-yloxy)benzoyl)amino)ethyl]urea], the pIC50 in test [1] is 6.00. The inhibition in vivo at 100 µmol/kg with Leukotrienes was found to be 83%.

On to `NC(=O)N(O)CCNC(=O)Cc1cccc(Oc2ccccc2)c1` [Example 56, N-Hydroxy-N-[2-((3-phenoxyphenylacetyl)amino)ethyl]urea], for which, in test [1], the pIC50 was 6.66. The inhibition in vivo at 100 µmol/kg with Leukotrienes worked out at 85%.

As for `NC(=O)N(O)CCNC(=O)c1ccc(Oc2ccc(Cl)cc2)o1` [Example 58, N-Hydroxy-N-[2-((5-(4-chlorophenoxy)furan-2-oyl)amino)ethyl]urea], the negative logarithm of the IC50 (pIC50) in test [1] is 6.96. For the same molecule, in the test with Leukotrienes, the “% Inhibition of Leukotrienes, Oral Dose at 50 μmol/kg” value is 81%.

With `C[C@@H](CN(O)C(N)=O)NC(=O)c1ccc(Oc2ccc(F)cc2)o1` [Example 60], in test [1], the pIC50 was 6.55. In addition, the inhibition in vivo at 100 µmol/kg with Leukotrienes stood at 84%.

Take `NC(=O)N(O)CCNC(=O)c1ccc(Oc2ccc(F)cc2)o1` [Example 61]: the pIC50 in test [1] is 6.80. For the same molecule, the “% Inhibition of Leukotrienes, Oral Dose at 50 μmol/kg” value in the test with Leukotrienes amounted to 60%.

As for `NC(=O)N(O)CCNC(=O)c1cc2ccccc2o1` [Example 63, N-Hydroxy-N-[((benzo[b]furan-2-oyl)amino)ethyl]urea], in test [1], the pIC50 was 6.00. In the test with Leukotrienes (30 μmol/kg), the inhibition in vivo at 30 µmol/kg came out at 52%.

As to `NC(=O)N(O)CCNC(=O)COc1ccccc1Oc1ccccc1` [Example 73, N-Hydroxy-N-[2-((2-phenoxyphenoxyacetyl)amino)ethyl]urea], the inhibition in vivo at 30 µmol/kg in the test on Leukotrienes (30 μmol/kg) came out at 53%.

Turning to `CC(C)Cc1ccc(C(C)C(=O)NCCN(O)C(N)=O)cc1` (centres unmarked) [Example 82, N-Hydroxy-N-[2-((2-(4-(2-methylpropyl)phenyl)propionyl)amino)ethyl]urea], in test [1], the pIC50 was 5.30.

With `NC(=O)N(O)CCNC(=O)Cc1ccccc1Nc1c(Cl)cccc1Cl` [Example 83, N-Hydroxy-N-[2((2-(2.6-dichlorophenylamino)phenylacetyl)amino)ethyl]urea], in test [1], the pIC50 is 6.36.

As for `NC(=O)N(O)CCNC(=O)c1csc(-c2ccccc2)n1` [Example 84, N-Hydroxy-N-[2-((2-phenylthiazol-4-oyl)amino)ethyl]urea], the pIC50 in test [1] was 6.03.

For `CC(CNC(=O)OC(C)(C)C)N(O)C(N)=O` (centres unmarked) [Example 85, (d.l)-N-Hydroxy-N-[3-((tert-butyoxycarbonyl)amino)prop-2-yl]urea], in test [1], the pIC50 was 6.54.

In the case of `CC(Oc1ccccc1C(=O)NCCN(O)C(N)=O)c1ccccc1` (centres unmarked) [Example 87, N-Hydroxy-N-[2-((2-(1-phenylethyloxy)benzoyl)amino)ethyl]urea], the pIC50 in test [1] is 6.43. Further, the inhibition in vivo at 100 µmol/kg in the test on Leukotrienes was determined as 60%.

With `CC(CCNC(=O)c1ccc(Oc2ccc(F)cc2)o1)N(O)C(N)=O` (centres unmarked) [Example 88, N-Hydroxy-N-[4-((5-(4-fluorophenoxy)furan-2-oyl)amino)but-2-yl]urea], in test [1], the negative-log IC50 (pIC50) is 6.55. Moreover, in the test on Leukotrienes (30 μmol/kg), the inhibition in vivo at 30 µmol/kg was 84%.

On to “N-Hydroxy-N-[2-((3-(4-chlorophenylsulfonyl)benzoyl)amino)ethyl]urea [Example 62]”, for which, in test [1], the negative-log IC50 (pIC50) was 6.04.

Consider “N-Hydroxy-N-[((4-chlorobenzo[b]thien-2-oyl)amino)ethyl]urea [Example 64]”, for which the pIC50 in test [1] was 5.68. The “% Inhibition of Leukotrienes, Oral Dose at 30 μmol/kg” value with Leukotrienes (30 μmol/kg) came to 92%.

Source of the values: patent US5214204A, “Arylamidoalkyl-N-hydroxyurea compounds having lipoxygenase inhibitory activity” (Abbott Laboratories, priority 1991, dated 1993).
